In patent US11053234B2 (GlaxoSmithKline Intellectual Property Development Limited, priority 2016, dated 2021):

Target: T1, haematopoietic prostaglandin D synthase (H-PGDS) (Homo sapiens, UniProt O60760)
T1 construct: Full length human H-PGDS cDNA (Invitrogen Ultimate ORF 10H13026) was amplified by PCR; 6-His (N); TEV protease cleavage site (N); made in house; host or cells: E. coli BL21 (DE3*), vector pET22b+
Assay: H-PGDS RapidFire high throughput mass spectrometry assay (conversion of PGH2 to PGD2)
Type: biochemical
Conditions: 10 nM H-PGDS, PGH2 formed in situ by COX-2 from arachidonic acid; read-out: Potency Range (mean pIC50) (converted)
Experimental: H-PGDS RapidFire™ High Throughput Mass Spectrometry Assay
The H-PGDS RapidFire™ mass spectrometric assay monitors conversion of prostaglandin H2 (PGH2) to prostaglandin D2 (PGD2) by haematopoietic prostaglandin D synthase (H-PGDS). In the assay format described here, the substrate (PGH2) is formed in situ by the action of cyclooxygenase-2 on arachidonic acid. This first step is set up to be fast, and generates a burst of PGH2 at ˜10 μM. The PGH2 is then further converted to PGD2 by the H-PGDS enzyme. […] Plates are then read on the RapidFire™ high throughput solid phase extraction system (Agilent) which incorporates a solid phase extraction step coupled to a triple quadrupole mass spectrometer (AB SCIEX). Relative levels of PGD2 and PGF2α, which acts as a surrogate for substrate, are measured and a percent conversion calculated.
Expression and Purification of H-PGDS Protein
Full length human H-PGDS cDNA (Invitrogen Ultimate ORF 10H13026) was amplified by PCR with the addition of a 5′ 6-His tag and TEV protease cleavage site. The PCR product was digested with Ndel and Xhol and ligated into pET22b+ (Merck Novagen®). Expression was carried out in E. coli strain BL21 (DE3*) using auto-induction Overnight Express™ Instant TB medium (Merck Novagen®) supplemented with 1% glycerol. The culture was first grown at 37° C. and the temperature was reduced to 25° C. when OD600 reached 2.0. Cells were harvested by centrifugation after a further 18 hr. 10 g of E. coli cell pellet was suspended to a total volume of 80 mL in lysis buffer (20 mM Tris-Cl pH 7.5, 300 mM NaCl, 20 mM imidazole, 5 mM β-mercaptoethanol, 10% glycerol). 1 mg/mL protease inhibitors (Protease Inhibitor Cocktail Set III, Merck Calbiochem®) and 1 mg/mL lysozyme were added to the cell suspension. The suspension was then sonicated for 5 min (UltraSonic Processor VCX 750, Cole-Parmer Instrument Co.) with a micro probe (50% amplitude, 10 sec on/off) and then centrifuged at 100,000 g for 90 min (at 4° C.). The supernatant was loaded onto a Ni-NTA HiTrap column (5 mL, GE Healthcare, pre-equilibrated in lysis buffer). The column was washed with 10 column volumes of lysis buffer and eluted with lysis buffer containing 500 mM imidazole. The pooled protein peak fractions were concentrated using a 10 kDa centrifugal filter at 3500 g and 4° C. (Amicon Ultra-15 centrifugal filter unit with Ultracel-10 membrane from Millipore). Further purification of the concentrated protein was carried out using gel filtration chromatography on a HiLoad 26/600 Superdex 75 preparative grade column (GE Healthcare Life Sciences) using 50 mM Tris pH 7.5, 50 mM NaCl, 1 mM dithiothreitol, 1 mM MgCl2. Fractions containing the protein were pooled, concentrated as described above, and stored at −80° C.
Expression and Purification of Cyclooxygenase-2 (COX-2) Protein
The full length human COX-2 gene (accession number L15326) was amplified by PCR to generate an EcoRI-HindIII fragment containing an in-frame FLAG tag. This was subcloned into pFastBac 1 (Invitrogen). The COX2 FLAG plasmid was recombined into the baculovirus genome according to the BAC-to-BAC protocol described by Invitrogen. Transfection into Spodoptera frugiperda (Sf9) insect cells was performed using Cellfectin (Invitrogen), according to the manufacturer's protocol. […] Cells were harvested using a continuous feed centrifuge run at 2500 g at a rate of approximately 2 L/min with cooling. The resultant cell slurry was re-centrifuged in pots (2500 g, 20 min, 4° C.) and the cell paste was stored at −80° C. […] The suspension was sonicated in 500 mL batches for 8×5 seconds at 10 u amplitude with the medium tip of an MSE probe sonicator and subsequently incubated at 4° C. for 90 min with gentle stirring. The lysate was centrifuged at 12000 rpm for 45 min at 4° C. in a Sorvall SLA1500 rotor. The supernatant (1400 mL) was added to 420 mL of 20 mM Tris-Cl pH 7.4, 150 mM NaCl, 0.1 mM EDTA to reduce the concentration of n-octyl-6-D-glucopyranoside to 1% w/v.

T1 sequence (O60760 whole entry): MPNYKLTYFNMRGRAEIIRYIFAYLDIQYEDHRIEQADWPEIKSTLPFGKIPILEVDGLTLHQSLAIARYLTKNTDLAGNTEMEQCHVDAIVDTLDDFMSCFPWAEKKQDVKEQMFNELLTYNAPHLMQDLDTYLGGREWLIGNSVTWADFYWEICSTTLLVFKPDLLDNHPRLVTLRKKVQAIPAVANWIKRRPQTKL

Row | SMILES | IC50 [nM]
1 | CC(C)(O)C1CC2(CC(NC(=O)[C@H]3C[C@H](Oc4cc(F)cc5scnc45)C3)C2)C1 (mixture of isomers) [Example 116, Racemic (trans)-3-((6-Fluorobenzo[d]thiazol-4-yl)oxy)-N-(6-(2-hydroxypropan-2-yl)spiro[3.3]heptan-2-yl)cyclobutanecarboxamide] | 10 to 79.4
2 | CC(N[C@H]1CC[C@H](NC(=O)[C@H]2C[C@H](Oc3cc(F)cc4scnc34)C2)CC1)C(F)F (mixture of isomers) [Example 121, Racemic (trans)-N-((trans)-4-((1,1-Difluoropropan-2-yl)amino)cyclohexyl)-3-((6-fluorobenzo[d]thiazol-4-yl)oxy)cyclobutanecarboxamide] | 10 to 79.4
3 | O=C(N[C@H]1CC[C@@H](NC(CO)C(F)(F)F)CC1)N1CC(Oc2cc(F)cc3scnc23)C1 (mixture of isomers) [Example 124, Racemic 3-((6-Fluorobenzo[d]thiazol-4-yl)oxy)-N-((cis)-4-((1,1,1-trifluoro-3-hydroxypropan-2-yl)amino)cyclohexyl)azetidine-1-carboxamide] | 10 to 79.4
4 | O=C(N[C@H]1CC[C@@H](NC(CO)C(F)(F)F)CC1)[C@H]1C[C@H](Oc2cc(F)cc3scnc23)C1 (mixture of isomers) [Example 125, Racemic (trans)-3-((6-Fluorobenzo[d]thiazol-4-yl)oxy)-N-((cis)-4-((1,1,1-trifluoro-3-hydroxypropan-2-yl)amino)cyclohexyl)cyclobutanecarboxamide] | 10 to 79.4
5 | O=C(N[C@H]1CC[C@H](NC(CO)C(F)(F)F)CC1)[C@H]1C[C@H](Oc2cc(F)cc3scnc23)C1 (mixture of isomers) [Example 126, Racemic (trans)-3-((6-Fluorobenzo[d]thiazol-4-yl)oxy)-N-((trans)-4-((1,1,1-trifluoro-3-hydroxypropan-2-yl)amino)cyclohexyl)cyclobutanecarboxamide] | 10 to 79.4
6 | CC(C)(O)[C@@H]1CC[C@@H](NC(=O)N2CC(Oc3cc(F)cc4scnc34)C2)CO1 (racemic) [Example 127, Racemic 3-((6-Fluorobenzo[d]thiazol-4-yl)oxy)-N-((trans)-6-(2-hydroxypropan-2-yl)tetrahydro-2H-pyran-3-yl)azetidine-1-carboxamide] | 10 to 79.4
7 | CC(C)(O)[C@@H]1CC[C@@H](NC(=O)[C@H]2C[C@H](Oc3cc(F)cc4scnc34)C2)CO1 (racemic) [Example 139, Racemic (trans)-3-((6-Fluorobenzo[d]thiazol-4-yl)oxy)-N-((trans)-6-(2-hydroxypropan-2-yl)tetrahydro-2H-pyran-3-yl)cyclobutanecarboxamide] | 10 to 79.4
8 | CC(N[C@H]1CC[C@H](NC(=O)N2CC(Oc3cc(F)cc4scnc34)C2)CC1)C(F)F (mixture of isomers) [Example 142, Racemic N-((trans)-4-((1,1-Difluoropropan-2-yl)amino)cyclohexyl)-3-((6-fluorobenzo[d]thiazol-4-yl)oxy)azetidine-1-carboxamide] | 10 to 79.4
9 | COc1ccc(F)cc1O[C@H]1C[C@H](C(=O)NC2CCN(C(=O)OC(C)(C)C)C2)C1 (mixture of isomers) [Example 143, tert-butyl 3-((trans)-3-(5-fluoro-2-methoxyphenoxy)cyclobutanecarboxamido)pyrrolidine-1-carboxylate] | 10 to 79.4
10 | COc1ccc(F)cc1O[C@H]1C[C@H](C(=O)NC2CCN(c3ncc(C#N)s3)C2)C1 (mixture of isomers) [Example 144, Racemic (trans)-N-(1-(5-Cyanothiazol-2-yl)pyrrolidin-3-yl)-3-(5-fluoro-2-methoxyphenoxy)cyclobutanecarboxamide] | 10 to 79.4
11 | COc1ccc(F)cc1O[C@H]1C[C@H](C(=O)NC2CCN(c3cc(C#N)ccn3)C2)C1 (mixture of isomers) [Example 145, Racemic (trans)-N-(1-(4-Cyanopyridin-2-yl)pyrrolidin-3-yl)-3-(5-fluoro-2-methoxyphenoxy)cyclobutanecarboxamide] | 10 to 79.4
12 | COc1ccc(F)cc1O[C@H]1C[C@H](C(=O)NC2CC(=O)Nc3ccccc32)C1 (mixture of isomers) [Example 153, Racemic (trans)-3-(5-Fluoro-2-methoxyphenoxy)-N-(2-oxo-1,2,3,4-tetrahydroquinolin-4-yl)cyclobutanecarboxamide] | 10 to 79.4
13 | COc1ccc(F)cc1O[C@H]1C[C@H](C(=O)NC2CC3(C2)CC(C(C)(C)O)C3)C1 (mixture of isomers) [Example 160, Racemic (trans)-3-(5-Fluoro-2-methoxyphenoxy)-N-(6-(2-hydroxypropan-2-yl)spiro[3.3]heptan-2-yl)cyclobutanecarboxamide] | < 10
14 | COc1ccc(F)cc1O[C@H]1C[C@H](C(=O)N[C@H]2CC[C@H](NC(C)C(F)(F)F)CC2)C1 (mixture of isomers) [Example 161, Racemic (trans)-3-(5-Fluoro-2-methoxyphenoxy)-N-((trans)-4-((1,1,1-trifluoropropan-2-yl)amino)cyclohexyl)cyclobutanecarboxamide] | 10 to 79.4
15 | CC(C)(O)C1CC2(CC(NC(=O)[C@H]3C[C@H](Oc4cccc5cccnc45)C3)C2)C1 (mixture of isomers) [Example 170, Racemic (trans)-N-(6-(2-Hydroxypropan-2-yl)spiro[3.3]heptan-2-yl)-3-(quinolin-8-yloxy)cyclobutanecarboxamide] | 10 to 79.4
16 | CC(N[C@H]1CC[C@H](NC(=O)[C@H]2C[C@H](Oc3cccc4cccnc34)C2)CC1)C(F)(F)F (mixture of isomers) [Example 173, Racemic (trans)-3-(Quinolin-8-yloxy)-N-((trans)-4-((1,1,1-trifluoropropan-2-yl)amino)cyclohexyl)cyclobutanecarboxamide] | 10 to 79.4
17 | CC(N[C@H]1CC[C@H](NC(=O)[C@H]2C[C@H](Oc3cccc4cccnc34)C2)CC1)C(F)F (mixture of isomers) [Example 180, Racemic (trans)-N-((trans)-4-((1,1-Difluoropropan-2-yl)amino)cyclohexyl)-3-(quinolin-8-yloxy)cyclobutanecarboxamide] | 100 to 1000
18 | CC(O)(c1csc(NC(=O)[C@H]2C[C@H](Oc3cccc4cccnc34)C2)n1)C(F)(F)F (mixture of isomers) [Example 187, Racemic (trans)-3-(Quinolin-8-yloxy)-N-(4-(1,1,1-trifluoro-2-hydroxypropan-2-yl)thiazol-2-yl)cyclobutanecarboxamide] | 10 to 79.4
19 | CC(C)(O)[C@@H]1CC[C@@H](NC(=O)[C@H]2C[C@H](Oc3cccc4cccnc34)C2)CO1 (racemic) [Example 195, Racemic (trans)-N-((trans)-6-(2-Hydroxypropan-2-yl)tetrahydro-2H-pyran-3-yl)-3-(quinolin-8-yloxy)cyclobutanecarboxamide] | 100 to 1000
20 | O=C(NC1CCc2ccccc21)[C@H]1C[C@H](Oc2cccc3cccnc23)C1 (mixture of isomers) [Example 212, Racemic (trans)-N-(2,3-Dihydro-1H-inden-1-yl)-3-(quinolin-8-yloxy)cyclobutanecarboxamide] | 10 to 79.4
21 | CC1C(Oc2cc(F)cc3scnc23)CN1C(=O)N[C@H]1CC[C@H](C(C)(C)O)CC1 (mixture of isomers) [Example 236, Racemic 3-((6-Fluorobenzo[d]thiazol-4-yl)oxy)-N-((trans)-4-(2-hydroxypropan-2-yl)cyclohexyl)-2-methylazetidine-1-carboxamide] | 10 to 79.4
